The values below are quoted from earlier work in patent publication US11737458B2, “Fibrous substrate for capture of gram negative bacteria” (Kimberly-Clark Worldwide, Inc., priority 2015, dated 2023).

In the case of `C=CC(=O)O` [acrylic acid], the pKa value result was “about 4.3”.
